One experiment deals with Endothelial lipase (EL) (Homo sapiens (Human), UniProt Q9Y5X9). Briefly: EL assay: endothelial lipase activity with fluorescent substrate A10070 in DMPG vesicles. Type of experiment: biochemical. Put shortly: (§1)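 Substrate A10070 sits in sonicated DMPG vesicles at 0.11 mole fraction. Lipase and compound preincubated 30 min, 37° C, in HEPES pH 8.0 buffer with CaCl2.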
The target in another experiment is hepatic lipase (HL) (Homo sapiens (Human), UniProt P11150). The experiment can be described thus: HL assay: hepatic lipase activity with fluorescent substrate A10070 in DMPG vesicles. In kind it is biochemical. Put shortly:
as §1

[1] abbreviates: EL from conditioned media of HT-1080 cells, 30 min incubation with compound at 37° C., A10070/DMPG vesicles.
[2] abbreviates: HL partially purified from conditioned media of COS cells, 30 min incubation with compound at 37° C., A10070/DMPG vesicles.

Like-named read-outs stand apart in the source and are kept apart here. Bounds are passed on as bounds.

hepatic lipase (HL), sequence (P11150 23-499, species assumed): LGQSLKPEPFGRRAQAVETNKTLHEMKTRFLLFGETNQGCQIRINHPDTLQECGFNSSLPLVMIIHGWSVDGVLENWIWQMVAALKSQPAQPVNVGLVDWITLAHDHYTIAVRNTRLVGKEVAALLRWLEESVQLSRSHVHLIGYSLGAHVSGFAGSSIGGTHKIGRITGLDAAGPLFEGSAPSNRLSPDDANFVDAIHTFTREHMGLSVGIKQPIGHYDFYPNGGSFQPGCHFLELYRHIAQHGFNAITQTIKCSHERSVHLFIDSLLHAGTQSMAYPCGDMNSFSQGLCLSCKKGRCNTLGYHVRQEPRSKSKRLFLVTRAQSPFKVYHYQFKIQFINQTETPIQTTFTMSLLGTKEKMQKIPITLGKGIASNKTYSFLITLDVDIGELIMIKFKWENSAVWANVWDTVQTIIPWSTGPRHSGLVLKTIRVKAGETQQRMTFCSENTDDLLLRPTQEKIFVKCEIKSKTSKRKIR
Endothelial lipase (EL), sequence (Q9Y5X9 21-500): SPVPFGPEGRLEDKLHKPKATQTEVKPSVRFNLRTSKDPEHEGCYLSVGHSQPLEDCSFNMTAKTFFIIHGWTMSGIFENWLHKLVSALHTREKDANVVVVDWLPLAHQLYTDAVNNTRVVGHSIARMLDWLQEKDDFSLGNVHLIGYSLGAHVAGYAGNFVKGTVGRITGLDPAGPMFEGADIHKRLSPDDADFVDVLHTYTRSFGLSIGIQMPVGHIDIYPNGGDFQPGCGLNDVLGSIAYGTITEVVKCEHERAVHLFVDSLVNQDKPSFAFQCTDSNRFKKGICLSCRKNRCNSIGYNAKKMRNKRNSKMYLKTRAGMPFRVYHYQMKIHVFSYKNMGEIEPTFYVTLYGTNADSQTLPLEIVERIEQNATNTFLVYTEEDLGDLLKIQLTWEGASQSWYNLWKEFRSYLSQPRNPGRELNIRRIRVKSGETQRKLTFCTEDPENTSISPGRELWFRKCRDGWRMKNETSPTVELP

As for `CC(C)(C)OC(=O)N1CCC(n2cc(-c3ccc4nc(C(C(=O)NCCS(N)(=O)=O)S(C)(=O)=O)sc4c3)cn2)CC1` (stereo not shown) [Example B76, tert-butyl 4-(4-(2-(1-(methylsulfonyl)-2-oxo-2-((2-sulfamoyl-ethyl)amino)ethyl)-1,3-benzothiazol-6-yl)-1H-pyrazol-1-yl)-1-piperidinecarboxylate], the IC50 – broadly, the concentration at which inhibition is half-maximal – against Endothelial lipase (EL) is less than 10 nM; on hepatic lipase (HL) it was 21 nM.
On to `NS(=O)(=O)CCNC(=O)C(c1nc2ccc(C(=O)N3CCC(F)(F)C3)cc2s1)S(=O)(=O)CCC(F)(F)F` (stereo not shown) [Example B197, 2-(6-(3,3-Difluoropyrrolidine-1-carbonyl)benzo[d]thiazol-2-yl)-N-(2-sulfamoylethyl)-2-((3,3,3-trifluoropropyl)sulfonyl)acetamide], for which the concentration for half-maximal inhibition (IC50) on Endothelial lipase (EL) (setting [1]) was less than 10 nM; at hepatic lipase (HL) (setting [2]), 10100 nM.
Turning to `Cc1nnc(CNC(=O)C(c2nc3ccc(-c4ccc(C(=O)OC(C)(C)C)cc4)cc3s2)S(C)(=O)=O)s1` (stereo not shown) [Example B279, tert-butyl 4-{2-[methanesulfonyl({[(5-methyl-1,3,4-thiadiazol-2-yl)methyl]carbamoyl})meth-yl]-1,3-benzothiazol-6-yl}benzoate], the IC50 at Endothelial lipase (EL) was determined as 15.6 nM; at hepatic lipase (HL), 2.8 nM.
For `COCCS(=O)(=O)C(C(=O)NCCS(N)(=O)=O)c1nc2ccc(-c3ccc(NC(=O)OC(C)(C)C)cc3)cc2s1` (stereo not shown) [Example B70, tert-butyl (4-(2-(1-((2-methoxyethyl)sulfonyl)-2-oxo-2-((2-sulfamoylethyl)a-mino)ethyl)-1,3-benzothiazol-6-yl)phenyl)car-bamate], in that order: less than 10 nM and less than 10 nM.
As for `NS(=O)(=O)CCNC(=O)C(c1nc2ccc(-c3ccc(CCO)cc3)cc2s1)S(=O)(=O)Cc1ccc(F)cc1` (stereo not shown) [Example B240, 2-[(4-fluorophenyl)methane-sulfonyl]-2-{6-[4-(2-hydroxyethyl)phenyl]-1,3-benzothiazol-2-yl}-N-(2-sulfamoylethyl)a-cetamide], the IC50 against Endothelial lipase (EL) was found to be 25.7 nM; against hepatic lipase (HL), 76.6 nM.
Take `COCCn1cc(-c2ccc3nc(C(C(=O)NCCS(N)(=O)=O)S(=O)(=O)Cc4ccc(F)cc4)sc3c2)cn1` (stereo not shown) [Example B163, 2-((4-fluorobenzyl)sul-fonyl)-2-(6-(1-(2-methoxyethyl)-1H-pyrazol-4-yl)-1,3-benzothiazol-2-yl)-N-(2-sulfamoylethyl)a-cetamide]: the IC50 was found to be 28 nM against Endothelial lipase (EL) and 2550 nM on hepatic lipase (HL).
For `CS(=O)(=O)C(C(=O)NCCS(N)(=O)=O)c1nc2ccc(-c3cnn(Cc4ccccc4)c3)cc2s1` (stereo not shown) [Example B68, 2-[6-(1-benzyl-1H-pyrazol-4-yl)-1,3-benzothiazol-2-yl]-2-(methylsulfonyl)-N-(2-sulfamoylethyl)a-cetamide], in that order: less than 10 nM and less than 10 nM.
Turning to `CS(=O)(=O)C(C(=O)NCCS(N)(=O)=O)c1nc2cc(-c3ncccn3)ccc2s1` (stereo not shown) [Example B374, 2-methanesulfonyl-2-[5-(pyrimidin-2-yl)-1,3-benzothiazol-2-yl]-N-(2-sulfamoylethyl)acetamide], the IC50 on Endothelial lipase (EL) amounted to 0.8 nM; against hepatic lipase (HL), 23.7 nM.
The corresponding values for `CS(=O)(=O)C(C(=O)NCCS(N)(=O)=O)c1nc2ccc(-c3cncnc3)cc2s1` (stereo not shown) [Example B146, 2-(methylsulfonyl)-2-(6-(5-pyrimidinyl)-1,3-benzothiazol-2-yl)-N-(2-sulfamoylethyl)acetamide] are less than 10 nM and 916 nM.
`NS(=O)(=O)CCNC(=O)C(c1nc2ccc(-c3ccc4c(c3)CNC4=O)cc2s1)S(=O)(=O)Cc1ccc(OC(F)(F)F)cc1` (stereo not shown) [Example B303, 2-[6-(1-oxo-2,3-dihydro-1H-isoindol-5-yl)-1,3-benzothiazol-2-yl]-N-(2-sulfamoylethyl)-2-{[4-(trifluoromethoxy)phen-yl]methanesulfonyl)a-cetamide]: the IC50 on Endothelial lipase (EL) is 2.5 nM; on hepatic lipase (HL), 51.2 nM.
In the case of `CS(=O)(=O)C(C(=O)NCCS(N)(=O)=O)c1nc2cc(-c3cnoc3)ccc2s1` (stereo not shown) [Example B373, 2-methanesulfonyl-2-[5-(1,2-oxazol-4-yl)-1,3-benzothiazol-2-yl]-N-(2-sulfamoylethyl)acetamide], the values for the IC50 against Endothelial lipase (EL) and against hepatic lipase (HL) were 3.3 nM and 45.7 nM, respectively.
Turning to `NS(=O)(=O)CCNC(=O)C(c1nc2cc(F)c(-c3ccccc3)cc2s1)S(=O)(=O)CCNC(=O)OCc1ccccc1` (stereo not shown) [Example B135, benzyl (2-((1-(5-fluoro-6-phenyl-1,3-benzothiazol-2-yl)-2-oxo-2-((2-sulfamoyl-ethyl)amino)ethyl)sul-fonyl)ethyl)carbamate], the IC50 is less than 10 nM against Endothelial lipase (EL) and 56 nM against hepatic lipase (HL).
`NCCS(=O)(=O)C(C(=O)NCCS(N)(=O)=O)c1nc2ccc(-c3ccc(C(=O)N4CCOCC4)cc3)cc2s1` (stereo not shown) [Example B159]: the IC50 against Endothelial lipase (EL) is less than 10 nM; at hepatic lipase (HL) it was 22 nM.
The corresponding values for `CC(C)(C)OC(=O)c1ccc(-c2ccc3nc(C(C(=O)NCCS(N)(=O)=O)S(C)(=O)=O)sc3c2)cc1` (stereo not shown) [Example B156, tert-butyl 4-(2-(1-(methylsulfonyl)-2-oxo-2-(2-sulfamoylethylamino)eth-yl)benzo[d]thiazol-6-yl)benzoate] are less than 10 nM and less than 10 nM.
For `Cc1cc2nc(C(C(=O)NCCS(N)(=O)=O)S(C)(=O)=O)sc2cc1-c1ccc(C(=O)O)cc1` (stereo not shown) [Example B326, 4-(2-{methanesulfonyl[(2-sulfamoylethyl)carba-moyl]methyl}-5-methyl-1,3-benzothiazol-6-yl)benzoic acid], in that order: 1.6 nM and 201 nM.
For `COC1CN(C(=O)c2ccc(-c3ccc4nc(C(C(=O)NCCS(N)(=O)=O)S(=O)(=O)CCC(F)(F)F)sc4c3)cc2)C1` (stereo not shown) [Example B301, 2-{6-[4-(3-methoxy-azetidine-1-carbonyl)phen-yl]-1,3-benzothiazol-2-yl}-N-(2-sulfamoyl-ethyl)-2-(3,3,3-trifluoro-propanesulfonyl)acetamide], in that order: 7.8 nM and 113 nM.
As to “2-[6-(3-fluoro-2-hydroxy- pyridin-4-yl)-1,3- benzothiazol-2-yl]-N-(2- sulfamoylethyl)-2-{[4- (trifluoromethoxy)phen- yl]methanesulfonyl}a- cetamide [Example B376]”, the IC50 amounted to 7.1 nM at Endothelial lipase (EL) and 4700 nM against hepatic lipase (HL).
`Cc1cc2nc(C(C(=O)NCCS(N)(=O)=O)S(=O)(=O)CC(C)C)sc2cc1-c1ccc(F)nc1` (stereo not shown) [Example B131, 2-(6-(6-fluoro-3-pyridinyl)-5-methyl-1,3-benzothiazol-2-yl)-2-(isobutylsulfonyl)-N-(2-sulfamoylethyl)acetamide]: the figures for the IC50 against Endothelial lipase (EL) and against hepatic lipase (HL) were less than 10 nM and 12 nM, respectively.
For `CC(C)(C)OC(=O)c1ccc2sc(C(C(=O)NCCS(N)(=O)=O)S(C)(=O)=O)nc2c1` (stereo not shown) [Example B391, tert-Butyl 2-(1-(methylsulfonyl)-2-oxo-2-((2-sulfamoylethyl)amino)ethyl)-1,3-benzothiazole-5-carboxylate], the IC50 on Endothelial lipase (EL) (setting [1]) is 25 nM; at hepatic lipase (HL) (setting [2]), 53.4 nM.
As for `CS(=O)(=O)C(C(=O)NCCS(N)(=O)=O)c1nc2cc(C(=O)NCCc3ccc(F)cc3)ccc2s1` (stereo not shown) [Example B394, N-[2-(4-fluorophenyl)ethyl]-2-{methanesulfonyl[(2-sulfa-moylethyl)carbamoyl]meth-yl}-1,3-benzothiazole-5-carboxamide], the IC50 was found to be 37.4 nM at Endothelial lipase (EL) and 1600 nM at hepatic lipase (HL).
The corresponding values for `COc1ccc(-c2cc3sc(C(C(=O)NCc4nnc(C)o4)S(=O)(=O)Cc4ccccc4)nc3cc2C)cn1` (stereo not shown) [Example B97, 2-(benzylsulfonyl)-2-(6-(6-methoxy-3-pyridinyl)-5-methyl-1,3-benzothiazol-2-yl)-N-((5-methyl-1,3,4-oxadiazol-2-yl)methyl)a-cetamide] are 24 nM and 57 nM.
As to `COc1ccc(CN(Cc2ccc(OC)cc2)S(=O)(=O)CCNC(=O)C(c2nc3ccc(-c4ccccc4)cc3s2)S(C)(=O)=O)cc1` (stereo not shown) [Example B121, N-(2-(bis(4-methoxybenzyl)sulfamoyl)eth-yl)-2-(methylsulfonyl)-2-(6-phenyl-1,3-benzothiazol-2-yl)a-cetamide], the IC50 at Endothelial lipase (EL) is 80 nM; against hepatic lipase (HL), 11 nM.
The corresponding values for `COCCNC(=O)c1ccc(-c2ccc3nc(C(C(=O)NCc4nnc(C)o4)S(=O)(=O)CCOC)sc3c2)cc1` (stereo not shown) [Example B264, 4-{2-[(2-methoxyethane-sulfonyl)({[(5-methyl-1,3,4-oxadiazol-2-yl)meth-yl]carbamoyl})meth-yl]-1,3-benzothiazol-6-yl}-N-(2-methoxyethyl)ben-zamide] are 93 nM and 184 nM.
On to `COc1cc(-c2ccc3nc(C(C(=O)NCCS(N)(=O)=O)S(C)(=O)=O)sc3c2)ccn1` (stereo not shown) [Example B147, 2-(6-(2-methoxy-4-pyridinyl)-1,3-benzothiazol-2-yl)-2-(methylsulfonyl)-N-(2-sulfamoylethyl)acetamide], for which the IC50 on Endothelial lipase (EL) and at hepatic lipase (HL) was less than 10 nM each time.
Regarding `CS(=O)(=O)C(C(=O)NCCS(N)(=O)=O)c1nc2ccc(-c3cncs3)cc2s1` (stereo not shown) [Example B222, 2-methanesulfonyl-N-(2-sulfamoylethyl)-2-[6-(1,3-thiazol-5-yl)-1,3-benzothiazol-2-yl]a-cetamide], the IC50 against Endothelial lipase (EL) turned out to be 12.3 nM; against hepatic lipase (HL), 31.6 nM.
As to `COc1cc(-c2ccc3sc(C(C(=O)NCCS(N)(=O)=O)S(C)(=O)=O)nc3c2)ccn1` (stereo not shown) [Example B88, 2-(5-(2-methoxy-4-pyridinyl)-1,3-benzothiazol-2-yl)-2-(methylsulfonyl)-N-(2-sulfamoylethyl)acetamide], the figures for the IC50 at Endothelial lipase (EL) and against hepatic lipase (HL) were 0.5 nM and 2.2 nM, respectively.

The record behind these values is patent publication US8987314B2, “Amide, urea or sulfone amide linked benzothiazole inhibitors of endothelial lipase” (Bristol-Myers Squibb Company, priority 2012, dated 2015).
